Results as given in patent US20260207798A1, “CYCLIC PEPTIDES AS PET IMAGING AGENTS OF GRANZYME B” (priority 2022, published 2026).
Numbered stars: 1 amine (or outer) side, 2 acyl side, 3 side chain; on linkers, the order of the positions; unused ones are H or OH. Bridge positions count the residues as written; N and C are the ends. Square brackets hold non-standard residues; d marks the D form. Primed or numbered codes have the meaning given here. Peptide text beside a SMILES is read from it. I, II: the chains in the order shown. CO(CH2)2(OCH2CH2)17CO = O=C(CCOCCOCCOCCOCCOCCOCCOCCOCCOCCOCCOCCOCCOCCOCCOCCOCCOCCC(=O)[*:2])[*:1]; NOTA‑1 = 1,4,7-triazacyclononane-N,N',N''-triacetic acid phenyl thiourea; Pro(trans-4-F) = O=C(O)[C@@H]1C[C@@H](F)CN1; Pro(cis-4-F) = O=C(O)[C@@H]1C[C@H](F)CN1; Pro(4R-Me) = C[C@H]1CN[C@H](C(=O)O)C1; Tic = O=C(O)[C@@H]1Cc2ccccc2CN1; PEG2′ = not defined here; Aib = CC(C)(N)C(=O)O

How the values were obtained:
[1] = target: human Granzyme B (hGranzyme B) (Homo sapiens, UniProt P10144); assay: Surface plasmon resonance (SPR) binding kinetics to hGranzyme B; settings: 25° C., 1:1 binding model, KD=kd/ka; read-out: Granzyme B SPR Kd
Method: The kinetics of test peptide binding to human Granzyme B (hGranzyme B) was determined by SPR. All experiments were performed at 25° C. using the Biacore 8k+ instrument (Cytiva, Marlborough, MA). The Biacore 8k+ Insight Evaluation Software Version 3.0 was used to fit the data with a 1:1 binding model to determine the association rate constant ka (M^−1s^−1, where “M” ~equals molar and “s” ~equals seconds) and the dissociation rate constant kd (s^−1). These rate constants were used to calculate the equilibrium dissociation constant. KD (M)=kd/ka.
To measure the binding kinetics of peptides of interest, surfaces were prepared by a capture method to a Series S Streptavidin (SA) chip using a 1×HBS-EP+ running buffer (Cytiva). hGranzyme B was diluted to 10 μg/mL in IX HBS-EP+ and flowed over spot 2 of each flow cell on the chip at a flow rate of 10 ul/min for 20 s to achieve a level of capture of ~1100 RU. An unmodified spot 1 of each flow cell was used as a matrix binding control or reference surface. Binding kinetics were measured using single cycle kinetics at 25° C. by injecting 5 concentrations with 3-fold serial dilutions of test peptides from 0.01 μM to 1 μM. Compound dilutions were performed manually in a running buffer containing 1×HBS-EP+(Cytiva), and a final concentration of 2% DMSO. The interaction analyses over hGranzyme B, were performed using a 120 s association time and a 900 s dissociation time. All experiments were conducted at a flow rate of 50 μL/min with a data collection rate of 10 Hz.
Peptide dilution series included 2 zero concentration points (no compound) which were averaged and subtracted from the peptide concentration injection as DMSO control responses. Binding data acquired from the reference surface (matrix binding control) were subtracted from the binding data for hGranzyme B surface on the chip to determine specific binding. Next, the association phase data were solvent corrected to account for any signal fluctuation throughout the experiment due to subtle DMSO concentration differences. Corrected response data were analyzed using the Biacore 8k+ Evaluation Software Version 3.0 according to the manufacturer. SPR data for representative compounds of the disclosure are found in Table 8.

human Granzyme B [2] = target: T1, human Granzyme B (human, UniProt P10144 21-247); assay: cell-based or functional assay
human Granzyme B [3] = target: T1, human Granzyme B; assay: SPR, Biacore 8k+, hGranzyme B captured on SA chip, single cycle kinetics, 1:1 model

T1 sequence (P10144 21-247 limits assumed): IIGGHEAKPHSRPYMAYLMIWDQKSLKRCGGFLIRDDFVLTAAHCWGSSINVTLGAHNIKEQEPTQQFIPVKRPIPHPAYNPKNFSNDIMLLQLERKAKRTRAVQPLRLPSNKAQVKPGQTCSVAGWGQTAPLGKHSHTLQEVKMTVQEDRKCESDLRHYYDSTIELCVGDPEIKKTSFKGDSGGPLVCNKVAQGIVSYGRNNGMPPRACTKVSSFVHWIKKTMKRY

Molecule	Kd [1] [nM]	Human Granzyme B IC50 (fluorogenic substrate enzyme inhibition assay) (human Granzyme B [2]) [nM]	Kd (human Granzyme B [3]) [nM]
C[C@@H]1NC(=O)[C@H](CO)NC(=O)[C@H](CCC(N)=O)NC(=O)[C@H](CC(=O)O)NC(=O)[C@H](CCC(=O)O)NC(=O)[C@H](Cc2ccccc2)NC(=O)[C@H](CC(N)=O)NC(=O)[C@H](Cc2ccccc2)NC(=O)CSC[C@@H](C(=O)NCC(=O)NCC(=O)N[C@@H](CCCCNC(=O)CCOCCOCCOCCOCCOCCOCCOCCOCCOCCOCCOCCOCCOCCOCCOCCOCCOCCC(=O)NCCCC[C@H](NC(=O)CNC(=O)CNC(=O)[C@@H]2CSCC(=O)N[C@@H](Cc3ccccc3)C(=O)N[C@@H](CC(N)=O)C(=O)N[C@@H](Cc3ccccc3)C(=O)N[C@@H](CCC(=O)O)C(=O)N[C@@H](CC(=O)O)C(=O)N[C@@H](CCC(N)=O)C(=O)N[C@@H](CO)C(=O)N[C@@H](C)C(=O)N[C@@H](CC(=O)O)C(=O)N[C@@H]([C@@H](C)O)C(=O)N[C@@H](Cc3c[nH]c4ccccc34)C(=O)N[C@@H](CCC(N)=O)C(=O)N3CCC[C@H]3C(=O)N2)C(N)=O)C(N)=O)NC(=O)[C@@H]2CCCN2C(=O)[C@H](CCC(N)=O)NC(=O)[C@H](Cc2c[nH]c3ccccc23)NC(=O)[C@H]([C@@H](C)O)NC(=O)[C@H](CC(=O)O)NC1=O [Compound 18a, (*F.N.F.E.D.Q.S.A.D.T.W.Q.P.*C.G.G.K.NH2)-PEG17-(F.N.F.E.D.Q.S.A.D.T.W.Q.P.C.G.G.K.NH2)] (I: {CH2CO}-FNFEDQSADTWQPCGGK-NH2 / II: {CH2CO}-FNFEDQSADTWQPCGGK-NH2; linker I:17-II:17 via CO(CH2)2(OCH2CH2)17CO (inferred); thioether I:N-I:14, II:N-II:14 (inferred))	< 0.3		
Compound 5a (linker I:17-II:17 via PEG2′; also: dimer of two macrocycles linked by PEG2 between Lys17 side chains, thioether at chain A 14 to a chain's N-terminus, thioether at chain B 14 to a chain's N-terminus, Dimer of two macrocycles linked by PEG2) peptide 1: {‑CH2C(O)‑}-FNFEDQSADTWQPCGGK-NH2 peptide 2: {‑CH2C(O)‑}-FNFEDQSADTWQPCGGK-NH2		< 8	
{CH2CO}-FNFEDQSADTWQPCG-NH2 (thioether N-14; SMILES C[C@@H]1NC(=O)[C@H](CO)NC(=O)[C@H](CCC(N)=O)NC(=O)[C@H](CC(=O)O)NC(=O)[C@H](CCC(=O)O)NC(=O)[C@H](Cc2ccccc2)NC(=O)[C@H](CC(N)=O)NC(=O)[C@H](Cc2ccccc2)NC(=O)CSC[C@@H](C(=O)NCC(N)=O)NC(=O)[C@@H]2CCCN2C(=O)[C@H](CCC(N)=O)NC(=O)[C@H](Cc2c[nH]c3ccccc23)NC(=O)[C@H]([C@@H](C)O)NC(=O)[C@H](CC(=O)O)NC1=O) [Compound 1a]		< 8	19.8
{CH2CO}-FNFEDQS[Pro(trans-4-F)]DTWQPCGGK(NOTA‑1)-NH2 (thioether N-14) [Compound 12a]		< 8	1.6
{CH2CO}-FNFEDQSADTWQPCGGK(NOTA‑1)-NH2 (thioether N-14) [Compound 2a]		< 8	13.5

Continued, values first:

Kd [1] [nM]	Human Granzyme B IC50 (fluorogenic substrate enzyme inhibition assay) (human Granzyme B [2]) [nM]	Kd (human Granzyme B [3]) [nM]	Molecule
3.7			C[C@@H](O)[C@@H]1NC(=O)CNC(=O)C(C)(C)NC(=O)[C@H](CO)NC(=O)[C@H](CCC(N)=O)NC(=O)[C@H](CC(=O)O)NC(=O)[C@H](CCC(=O)O)NC(=O)[C@H](Cc2ccccc2)NC(=O)[C@H](CC(N)=O)NC(=O)[C@H](Cc2ccccc2)NC(=O)CSC[C@@H](C(=O)NCC(N)=O)NC(=O)[C@@H]2CCCN2C(=O)[C@H](CCC(N)=O)NC(=O)[C@H](Cc2c[nH]c3ccccc23)NC1=O [Compound 45a, *F.N.F.E.D.Q.S.Aib.G.T.W.Q.P.*C.G.NH2] ({CH2CO}-FNFEDQS[Aib]GTWQPCG-NH2; thioether N-14)
4.2			C[C@@H](O)[C@@H]1NC(=O)[C@H](CC(=O)O)NC(=O)[C@@H]2CCCN2C(=O)[C@H](CO)NC(=O)[C@H](CCC(N)=O)NC(=O)[C@H](CC(=O)O)NC(=O)[C@H](CCC(=O)O)NC(=O)[C@H](Cc2ccccc2)NC(=O)[C@H](CC(N)=O)NC(=O)[C@H](Cc2ccccc2)NC(=O)CSC[C@@H](C(=O)NCC(N)=O)NC(=O)[C@@H]2C[C@H](F)CN2C(=O)[C@H](CCC(N)=O)NC(=O)[C@H](Cc2c[nH]c3ccccc23)NC1=O [Compound 48a, *F.N.F.E.D.Q.S.P.D.T.W.Q.Proc4F.*C.G.NH2] ({CH2CO}-FNFEDQSPDTWQ[Pro(cis-4-F)]CG-NH2; thioether N-14)
4.8			C[C@@H](O)[C@@H]1NC(=O)[C@H](CC(=O)O)NC(=O)[C@@H]2CCCN2C(=O)[C@H](CO)NC(=O)[C@H](CCC(N)=O)NC(=O)[C@H](CC(=O)O)NC(=O)[C@H](CCC(=O)O)NC(=O)[C@H](Cc2ccccc2)NC(=O)[C@H](CC(N)=O)NC(=O)[C@H](Cc2ccccc2)NC(=O)CSC[C@@H](C(=O)NCC(=O)NCC(=O)N[C@@H](CCCCN)C(N)=O)NC(=O)[C@@H]2CCCN2C(=O)[C@H](CCC(N)=O)NC(=O)[C@H](Cc2c[nH]c3ccccc23)NC1=O [Compound 51a, *F.N.F.E.D.Q.S.P.D.T.W.Q.P.*C.G.G.K.NH2] ({CH2CO}-FNFEDQSPDTWQPCGGK-NH2; thioether N-14)
4.8			CC(C)C[C@@H]1NC(=O)[C@@H]2CCCN2C(=O)[C@H](CO)NC(=O)[C@H](CCC(N)=O)NC(=O)[C@H](CC(=O)O)NC(=O)[C@H](CCC(=O)O)NC(=O)[C@H](Cc2ccccc2)NC(=O)[C@H](CC(N)=O)NC(=O)[C@H](Cc2ccccc2)NC(=O)CSC[C@@H](C(=O)NCC(N)=O)NC(=O)[C@@H]2CCCN2C(=O)[C@H](CCC(N)=O)NC(=O)[C@H](Cc2c[nH]c3ccccc23)NC(=O)[C@H]([C@@H](C)O)NC1=O [Compound 52a, *F.N.F.E.D.Q.S.P.L.T.W.Q.P.*C.G.NH2] ({CH2CO}-FNFEDQSPLTWQPCG-NH2; thioether N-14)
4.9			C[C@@H](O)[C@@H]1NC(=O)[C@H](CC(=O)O)NC(=O)[C@@H]2CCCN2C(=O)[C@H](CO)NC(=O)[C@H](CCC(N)=O)NC(=O)[C@H](CC(=O)O)NC(=O)[C@H](CCC(=O)O)NC(=O)[C@H](Cc2ccccc2)NC(=O)[C@H](CC(N)=O)NC(=O)[C@H](Cc2ccccc2)NC(=O)CSC[C@@H](C(=O)NCC(N)=O)NC(=O)[C@@H]2Cc3ccccc3CN2C(=O)[C@H](CCC(N)=O)NC(=O)[C@H](Cc2c[nH]c3ccccc23)NC1=O [Compound 53a, *F.N.F.E.D.Q.S.P.D.T.W.Q.Tic.*C.G.NH2] ({CH2CO}-FNFEDQSPDTWQ[Tic]CG-NH2; thioether N-14)
5.1			C[C@@H]1C[C@H]2C(=O)N[C@H](C(=O)NCC(N)=O)CSCC(=O)N[C@@H](Cc3ccccc3)C(=O)N[C@@H](CC(N)=O)C(=O)N[C@@H](Cc3ccccc3)C(=O)N[C@@H](CCC(=O)O)C(=O)N[C@@H](CC(=O)O)C(=O)N[C@@H](CCC(N)=O)C(=O)N[C@@H](CO)C(=O)N3CCC[C@H]3C(=O)N[C@@H](CC(=O)O)C(=O)N[C@@H]([C@@H](C)O)C(=O)N[C@@H](Cc3c[nH]c4ccccc34)C(=O)N[C@@H](CCC(N)=O)C(=O)N2C1 [Compound 55a, *F.N.F.E.D.Q.S.P.D.T.W.Q.Prot4Me.*C.G.NH2] ({CH2CO}-FNFEDQSPDTWQ[Pro(4R-Me)]CG-NH2; thioether N-14)
4.2			C[C@@H](O)[C@@H]1NC(=O)[C@H](CC(=O)O)NC(=O)[C@@H]2C[C@@H](F)CN2C(=O)[C@H](CO)NC(=O)[C@H](CCC(N)=O)NC(=O)[C@H](CC(=O)O)NC(=O)[C@H](CCC(=O)O)NC(=O)[C@H](Cc2ccccc2)NC(=O)[C@H](CC(N)=O)NC(=O)[C@H](Cc2ccccc2)NC(=O)CSC[C@@H](C(=O)NCC(=O)NCC(=O)N[C@@H](CCCCN)C(N)=O)NC(=O)[C@@H]2CCCN2C(=O)[C@H](CCC(N)=O)NC(=O)[C@H](Cc2c[nH]c3ccccc23)NC1=O [Compound 87a, *F.N.F.E.D.Q.S.Prot4F.D.T.W.Q.P.*C.G.G.K.NH2] ({CH2CO}-FNFEDQS[Pro(trans-4-F)]DTWQPCGGK-NH2; thioether N-14)
